Each block holds one compound with its values, some of them ahead of it. The source made the active and inactive calls.
Assays:
Format in all cases: functional
[1] = target: Ribosomal protein S6 kinase alpha-3 (Homo sapiens, UniProt P51812);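 note: measured within a kinome-wide profiling panel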
[2] = target: Tyrosine-protein kinase JAK2 (Homo sapiens, UniProt O60674);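 note: JAK2 tested as one member of a kinase panel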
[3] = target: Proto-oncogene tyrosine-protein kinase receptor Ret (Homo sapiens, UniProt P07949);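 note: measured within a kinome-wide profiling panel, RET as the panel member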
[4] = target: High affinity nerve growth factor receptor (Homo sapiens, UniProt P04629);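 note: NTRK1 tested as one member of a kinome-wide profiling panel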
[5] = target: Glycogen synthase kinase-3 alpha (Homo sapiens, UniProt P49840);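 note: GSK3A result taken from a broad kinome-wide kinase panel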
[6] = target: Mitogen-activated protein kinase kinase kinase kinase 2 (Homo sapiens, UniProt Q12851);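 note: measured as one member of a kinome-wide kinase panel, with MAP4K2 as the panel entry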
[7] = target: Hepatocyte growth factor receptor (Homo sapiens, UniProt P08581);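 note: kinase panel profiling across the kinome, with MET as the panel member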
[8] = target: Vascular endothelial growth factor receptor 2 (Homo sapiens, UniProt P35968)
[9] = target: G protein-coupled receptor kinase 5 (Homo sapiens, UniProt P34947); assay: Navigating the Kinome. Panel member name: GPRK5
[10] = target: Platelet-derived growth factor receptor alpha (Homo sapiens, UniProt P16234); assay: Navigating the Kinome. Panel member name: PDGFRA
Aurora kinase B = Aurora kinase B (Homo sapiens, UniProt Q96GD4)
[11] = target: Rho-associated protein kinase 1 (Homo sapiens, UniProt Q13464);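 note: measured within a broad kinome-wide panel profiling many kinases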
[12] = target: Cyclin-dependent kinase 7 (Homo sapiens, UniProt P50613);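 note: value comes from a kinome-wide kinase profiling panel in which CDK7 is one member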
[13] = target: Vascular endothelial growth factor receptor 1 (Homo sapiens, UniProt P17948);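 note: measured within a kinome-wide profiling panel, FLT1 as the panel member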
[14] = target: Glycogen synthase kinase-3 beta (Homo sapiens, UniProt P49841);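 note: value comes from a broad kinome profiling panel, with GSK3B as the panel member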
[15] = target: cAMP-dependent protein kinase catalytic subunit alpha (Homo sapiens, UniProt P17612)
[16] = target: Macrophage-stimulating protein receptor (Homo sapiens, UniProt Q04912); assay: Navigating the Kinome. Panel member name: MST1R
[17] = target: Inhibitor of nuclear factor kappa-B kinase subunit epsilon (Homo sapiens, UniProt Q14164); assay: Navigating the Kinome. Panel member name: IKBKE
[18] = target: Leukocyte tyrosine kinase receptor (Homo sapiens, UniProt P29376); assay: Navigating the Kinome. Panel member name: LTK
[19] = target: T1, Sentrin-specific protease 7 (Homo sapiens, UniProt Q9BQF6);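 note: Luminescence-based dose-response confirmation of ultra-high-throughput screening hits, measuring inhibition of SENP7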
T1 sequence (Q9BQF6 whole entry): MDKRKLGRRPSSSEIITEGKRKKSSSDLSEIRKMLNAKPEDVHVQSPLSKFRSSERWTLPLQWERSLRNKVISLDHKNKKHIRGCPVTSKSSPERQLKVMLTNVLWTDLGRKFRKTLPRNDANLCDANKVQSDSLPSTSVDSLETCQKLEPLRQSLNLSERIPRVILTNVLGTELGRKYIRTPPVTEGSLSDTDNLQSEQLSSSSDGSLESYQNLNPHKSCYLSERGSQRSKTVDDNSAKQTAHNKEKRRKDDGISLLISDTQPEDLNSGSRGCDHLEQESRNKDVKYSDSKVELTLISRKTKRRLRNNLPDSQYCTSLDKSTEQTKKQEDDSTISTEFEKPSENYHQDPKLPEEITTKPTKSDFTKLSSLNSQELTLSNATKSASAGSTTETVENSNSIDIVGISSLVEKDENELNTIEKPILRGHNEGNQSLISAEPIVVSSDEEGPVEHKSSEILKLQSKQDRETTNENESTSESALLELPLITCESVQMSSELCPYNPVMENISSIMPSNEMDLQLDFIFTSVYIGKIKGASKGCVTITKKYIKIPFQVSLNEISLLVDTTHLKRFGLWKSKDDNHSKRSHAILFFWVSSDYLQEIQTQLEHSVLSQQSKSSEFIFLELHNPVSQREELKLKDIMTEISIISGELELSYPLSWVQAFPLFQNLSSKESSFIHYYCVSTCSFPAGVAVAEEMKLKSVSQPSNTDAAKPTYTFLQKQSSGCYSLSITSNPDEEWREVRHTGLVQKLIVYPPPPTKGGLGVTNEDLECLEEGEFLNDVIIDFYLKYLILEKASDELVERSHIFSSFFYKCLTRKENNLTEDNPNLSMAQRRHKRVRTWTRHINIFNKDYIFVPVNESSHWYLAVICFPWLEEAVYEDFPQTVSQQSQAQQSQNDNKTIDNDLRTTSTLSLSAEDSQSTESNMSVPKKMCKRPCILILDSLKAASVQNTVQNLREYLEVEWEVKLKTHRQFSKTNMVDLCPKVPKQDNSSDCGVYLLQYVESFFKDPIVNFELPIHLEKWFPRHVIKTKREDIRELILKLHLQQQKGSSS

[20] = target: T2, Sentrin-specific protease 8 (Homo sapiens, UniProt Q96LD8);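 note: luminescence read-out of SENP8 inhibition, dose-response confirmation following an ultra-high-throughput screen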
T2 sequence (Q96LD8 whole entry): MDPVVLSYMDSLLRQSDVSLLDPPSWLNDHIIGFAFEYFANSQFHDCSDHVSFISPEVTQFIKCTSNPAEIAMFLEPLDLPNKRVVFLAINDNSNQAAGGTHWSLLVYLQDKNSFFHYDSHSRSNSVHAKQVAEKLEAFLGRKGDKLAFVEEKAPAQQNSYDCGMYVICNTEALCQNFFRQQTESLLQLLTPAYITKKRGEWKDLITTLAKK

[21] = target: T3, Orexin/Hypocretin receptor type 1 (Homo sapiens, UniProt O43613); assay: Fluorescence-based cell-based high throughput dose response assay for antagonists of the orexin 1 receptor (OX1R; HCRTR1). [Related pubchem assays (depositor defined):AID434989, AID435008, AID463079, AID485270, AID492963, AID492964, AID492965, AID493232, AID504717, AID504718]
T3 sequence (O43613 whole entry): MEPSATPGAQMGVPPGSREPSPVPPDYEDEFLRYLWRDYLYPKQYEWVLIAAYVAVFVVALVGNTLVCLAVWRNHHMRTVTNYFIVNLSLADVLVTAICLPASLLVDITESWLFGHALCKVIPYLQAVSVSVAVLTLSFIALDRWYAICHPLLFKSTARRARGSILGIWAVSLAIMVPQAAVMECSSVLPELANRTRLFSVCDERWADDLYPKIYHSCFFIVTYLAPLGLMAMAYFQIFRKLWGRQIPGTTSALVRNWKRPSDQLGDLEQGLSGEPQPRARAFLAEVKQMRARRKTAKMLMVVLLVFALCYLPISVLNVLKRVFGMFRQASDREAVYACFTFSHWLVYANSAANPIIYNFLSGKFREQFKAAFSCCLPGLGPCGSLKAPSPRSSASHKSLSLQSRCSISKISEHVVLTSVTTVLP

Sequence of Platelet-derived growth factor receptor alpha (P16234 whole entry): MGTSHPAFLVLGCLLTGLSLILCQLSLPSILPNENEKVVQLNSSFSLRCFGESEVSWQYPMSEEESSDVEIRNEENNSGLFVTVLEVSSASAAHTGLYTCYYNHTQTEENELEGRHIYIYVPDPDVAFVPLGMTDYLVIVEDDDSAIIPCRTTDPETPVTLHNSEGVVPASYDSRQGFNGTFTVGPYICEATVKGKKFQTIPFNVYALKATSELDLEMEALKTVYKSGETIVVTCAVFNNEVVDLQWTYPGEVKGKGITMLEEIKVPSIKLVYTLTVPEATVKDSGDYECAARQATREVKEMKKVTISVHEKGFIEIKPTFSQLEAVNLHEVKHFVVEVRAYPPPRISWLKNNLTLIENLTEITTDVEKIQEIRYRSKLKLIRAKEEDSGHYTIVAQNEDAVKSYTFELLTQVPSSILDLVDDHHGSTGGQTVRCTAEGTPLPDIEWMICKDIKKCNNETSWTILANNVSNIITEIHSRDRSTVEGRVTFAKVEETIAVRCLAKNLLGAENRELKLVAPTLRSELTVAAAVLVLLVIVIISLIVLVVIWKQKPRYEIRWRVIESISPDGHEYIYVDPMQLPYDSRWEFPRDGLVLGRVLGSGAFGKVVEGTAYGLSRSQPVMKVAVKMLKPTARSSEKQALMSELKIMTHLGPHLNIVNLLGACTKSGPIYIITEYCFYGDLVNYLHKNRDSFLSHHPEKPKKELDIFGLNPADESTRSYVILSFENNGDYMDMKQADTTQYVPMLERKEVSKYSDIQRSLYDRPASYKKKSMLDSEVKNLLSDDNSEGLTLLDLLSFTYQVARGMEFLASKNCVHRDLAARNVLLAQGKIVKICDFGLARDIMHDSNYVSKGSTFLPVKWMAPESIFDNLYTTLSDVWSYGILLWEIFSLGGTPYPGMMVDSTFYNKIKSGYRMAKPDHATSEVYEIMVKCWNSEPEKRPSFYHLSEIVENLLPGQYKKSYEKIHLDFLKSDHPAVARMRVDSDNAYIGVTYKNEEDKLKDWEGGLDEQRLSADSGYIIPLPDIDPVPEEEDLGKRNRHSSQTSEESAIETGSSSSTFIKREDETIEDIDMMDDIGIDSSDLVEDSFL
Sequence of Vascular endothelial growth factor receptor 1 (P17948 whole entry): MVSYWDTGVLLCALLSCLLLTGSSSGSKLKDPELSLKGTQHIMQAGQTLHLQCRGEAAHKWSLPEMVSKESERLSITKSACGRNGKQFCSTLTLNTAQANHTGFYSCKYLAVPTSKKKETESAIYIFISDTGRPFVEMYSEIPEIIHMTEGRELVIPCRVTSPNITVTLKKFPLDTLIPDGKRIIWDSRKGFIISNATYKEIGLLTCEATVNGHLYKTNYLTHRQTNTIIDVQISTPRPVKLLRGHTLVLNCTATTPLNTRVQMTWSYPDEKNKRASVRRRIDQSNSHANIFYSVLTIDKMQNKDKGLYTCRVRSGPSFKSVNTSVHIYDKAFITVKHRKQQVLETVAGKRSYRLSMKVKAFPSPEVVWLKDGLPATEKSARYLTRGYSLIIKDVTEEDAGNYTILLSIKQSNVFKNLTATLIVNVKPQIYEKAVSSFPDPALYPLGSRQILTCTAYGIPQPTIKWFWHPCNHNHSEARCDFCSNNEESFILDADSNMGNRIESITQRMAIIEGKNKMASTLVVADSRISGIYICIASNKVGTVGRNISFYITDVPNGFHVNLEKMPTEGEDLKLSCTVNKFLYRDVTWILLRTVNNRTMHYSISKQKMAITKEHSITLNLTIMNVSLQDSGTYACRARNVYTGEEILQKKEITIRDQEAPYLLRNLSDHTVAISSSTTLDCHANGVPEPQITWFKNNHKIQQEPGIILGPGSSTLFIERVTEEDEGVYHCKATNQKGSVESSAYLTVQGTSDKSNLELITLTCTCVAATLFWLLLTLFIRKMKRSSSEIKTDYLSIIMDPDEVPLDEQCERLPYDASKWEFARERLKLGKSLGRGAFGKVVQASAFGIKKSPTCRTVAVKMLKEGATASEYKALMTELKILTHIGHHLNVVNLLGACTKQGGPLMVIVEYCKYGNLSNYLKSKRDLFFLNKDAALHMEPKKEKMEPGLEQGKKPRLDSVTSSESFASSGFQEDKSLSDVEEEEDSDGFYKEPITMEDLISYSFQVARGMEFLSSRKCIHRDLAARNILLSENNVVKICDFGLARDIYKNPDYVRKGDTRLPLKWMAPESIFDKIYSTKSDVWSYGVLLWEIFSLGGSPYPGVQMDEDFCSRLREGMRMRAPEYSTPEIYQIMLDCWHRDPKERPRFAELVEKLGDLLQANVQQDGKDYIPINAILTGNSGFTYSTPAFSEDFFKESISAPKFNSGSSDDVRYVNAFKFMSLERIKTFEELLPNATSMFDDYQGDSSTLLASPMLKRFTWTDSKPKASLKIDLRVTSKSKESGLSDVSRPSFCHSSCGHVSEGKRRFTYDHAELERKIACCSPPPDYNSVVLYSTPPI
Sequence of Leukocyte tyrosine kinase receptor (P29376 whole entry): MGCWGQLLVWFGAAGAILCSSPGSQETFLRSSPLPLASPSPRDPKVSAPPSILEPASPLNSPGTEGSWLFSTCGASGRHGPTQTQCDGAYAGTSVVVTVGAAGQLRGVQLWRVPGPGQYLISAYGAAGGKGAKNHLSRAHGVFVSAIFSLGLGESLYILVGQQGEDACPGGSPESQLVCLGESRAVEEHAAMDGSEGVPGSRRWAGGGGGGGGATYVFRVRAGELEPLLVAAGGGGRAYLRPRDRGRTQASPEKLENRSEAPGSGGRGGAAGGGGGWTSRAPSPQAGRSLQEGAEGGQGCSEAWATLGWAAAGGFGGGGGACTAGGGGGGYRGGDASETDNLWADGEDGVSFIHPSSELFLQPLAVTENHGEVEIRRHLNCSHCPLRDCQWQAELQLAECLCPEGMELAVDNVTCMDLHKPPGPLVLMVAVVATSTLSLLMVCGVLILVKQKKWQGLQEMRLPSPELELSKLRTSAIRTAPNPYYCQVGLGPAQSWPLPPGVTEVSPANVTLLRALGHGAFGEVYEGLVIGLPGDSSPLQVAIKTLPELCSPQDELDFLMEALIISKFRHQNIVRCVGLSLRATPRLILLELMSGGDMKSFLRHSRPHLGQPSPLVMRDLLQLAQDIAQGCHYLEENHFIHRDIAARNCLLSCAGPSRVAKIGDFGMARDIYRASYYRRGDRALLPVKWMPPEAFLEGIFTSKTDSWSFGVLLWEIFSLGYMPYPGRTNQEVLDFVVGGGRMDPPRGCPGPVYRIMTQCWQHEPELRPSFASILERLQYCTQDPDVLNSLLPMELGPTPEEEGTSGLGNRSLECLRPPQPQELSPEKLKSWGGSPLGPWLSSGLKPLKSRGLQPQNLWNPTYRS
Sequence of Inhibitor of nuclear factor kappa-B kinase subunit epsilon (Q14164 whole entry): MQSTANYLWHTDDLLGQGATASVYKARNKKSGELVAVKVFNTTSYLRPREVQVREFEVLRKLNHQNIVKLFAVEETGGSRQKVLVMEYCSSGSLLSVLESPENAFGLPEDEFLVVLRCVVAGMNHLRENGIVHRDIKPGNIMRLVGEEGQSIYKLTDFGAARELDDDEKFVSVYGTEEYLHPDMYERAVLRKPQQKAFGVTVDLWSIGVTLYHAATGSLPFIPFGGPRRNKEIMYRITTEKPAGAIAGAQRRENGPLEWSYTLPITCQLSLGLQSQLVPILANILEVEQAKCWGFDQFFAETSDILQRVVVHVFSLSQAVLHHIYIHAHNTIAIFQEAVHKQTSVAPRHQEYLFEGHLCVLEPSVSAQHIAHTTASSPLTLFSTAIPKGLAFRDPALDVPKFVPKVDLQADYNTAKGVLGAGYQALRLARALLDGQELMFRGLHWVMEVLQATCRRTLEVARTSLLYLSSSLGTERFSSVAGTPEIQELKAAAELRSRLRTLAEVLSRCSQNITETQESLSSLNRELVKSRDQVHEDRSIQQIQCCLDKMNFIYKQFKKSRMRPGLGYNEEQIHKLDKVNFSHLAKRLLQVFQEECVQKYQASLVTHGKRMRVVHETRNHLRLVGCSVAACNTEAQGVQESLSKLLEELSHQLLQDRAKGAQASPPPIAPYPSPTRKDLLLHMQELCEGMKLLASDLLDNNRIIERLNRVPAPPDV
Sequence of Cyclin-dependent kinase 7 (P50613 whole entry): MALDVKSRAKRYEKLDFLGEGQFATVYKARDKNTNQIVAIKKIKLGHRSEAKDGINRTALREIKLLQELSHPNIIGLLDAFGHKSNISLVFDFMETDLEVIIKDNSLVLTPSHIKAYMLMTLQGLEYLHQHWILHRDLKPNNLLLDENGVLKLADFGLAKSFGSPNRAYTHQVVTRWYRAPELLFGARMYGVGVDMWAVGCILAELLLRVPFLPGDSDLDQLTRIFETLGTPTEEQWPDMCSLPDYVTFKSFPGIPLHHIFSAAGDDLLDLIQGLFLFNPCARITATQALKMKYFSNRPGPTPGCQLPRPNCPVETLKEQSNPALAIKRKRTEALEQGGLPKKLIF
Sequence of Glycogen synthase kinase-3 alpha (P49840 whole entry): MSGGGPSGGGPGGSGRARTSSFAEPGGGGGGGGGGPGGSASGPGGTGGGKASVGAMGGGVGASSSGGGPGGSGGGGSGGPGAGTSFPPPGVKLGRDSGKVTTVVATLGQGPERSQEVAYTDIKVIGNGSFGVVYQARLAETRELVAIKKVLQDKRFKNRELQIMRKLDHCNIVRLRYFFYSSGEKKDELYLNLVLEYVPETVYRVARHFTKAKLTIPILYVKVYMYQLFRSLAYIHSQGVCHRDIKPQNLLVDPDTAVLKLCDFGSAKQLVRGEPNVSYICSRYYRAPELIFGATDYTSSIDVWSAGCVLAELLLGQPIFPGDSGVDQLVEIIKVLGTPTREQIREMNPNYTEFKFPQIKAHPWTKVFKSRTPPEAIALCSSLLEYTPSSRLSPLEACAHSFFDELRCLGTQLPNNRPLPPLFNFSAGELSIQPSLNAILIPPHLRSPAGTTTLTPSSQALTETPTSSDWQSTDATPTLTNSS

Ki [1]: > 3980 nM (inactive)
Ki [2]: > 2510 nM (inactive)
Ki [3]: > 3160 nM (inactive)
Ki [4]: > 3160 nM (inactive)
Ki [5]: > 3980 nM (inactive)
Ki [6]: > 2510 nM (inactive)
Ki [7]: > 2510 nM (inactive)
Ki [8]: 2000 nM (active)
Ki [9]: > 3980 nM (inactive)
Ki [10]: > 2510 nM (inactive)
Ki (Aurora kinase B): > 3980 nM (inactive)
Ki [11]: 63.1 nM (active)
Ki [12]: 1000 nM (active)
Ki [13]: > 3980 nM (inactive)
Ki [14]: 3160 nM (active)
Ki [15]: 63.1 nM (active)
Ki [16]: 2510 nM (active)
Ki [17]: > 3160 nM (inactive)
Ki [18]: > 2510 nM (inactive)
SMILES: O=C(NCCc1cccs1)N1CC=C(c2c[nH]c3ncccc23)CC1

SMILES: Cc1ccnc2ccc(-c3nc4ccccc4o3)cc12
IC50 [19]: 2200 nM (active)
IC50 [20]: 71000 nM (active)
IC50 [21]: 4260 nM (active)

Source: ChEMBL document CHEMBL1201862, “PubChem BioAssay data set” (2004)
